For data set [1], the system named is GSC JK83 orthotopic xenografts. Nature of the data set: GSC JK83 orthotopic brain tumor xenograft model (survival, BLI, tissue staining). Format: in vivo, mice. The text has this: FIG. 7. NSC enhance anticancer efficacy of AZD2014 in a patient-derived GSC xenograft model. […] Treatments were started at one week post-implantation. Bioluminescent (BLI) images were taken after the last treatment, and representative images are shown. Scale bar, photons/sec/cm2/steradian. (B) Kaplan-Meier of mice bearing GSC JK83 orthotopic xenografts with indicated treatments. (C) The brains of mice bearing orthotopic xenografts with indicated treatments were collected for immunohistochemical evaluation using indicating antibody. *P<0.05, **p<0.01, […]. Data are representative from three independent experiments with similar results.
Frozen brain tissue sections with GBM xenografts were dried and then fixed in were fixed in 4% paraformaldehyde (PFA) in PBS for 5 minutes. Tissue sections were blocked with AquaBlock (East Coast Bio, North Berwick, Me.) for an hour and then were probed with appropriate primary antibodies 4° C. overnight. Tissue sections were incubated with Alexa 488 or 594 labelled secondary antibodies (1:200) and DAPI-containing mounting solution Vectashield (Vector Laboratories), and representative images were photographed using a Nikon inverted microscope Eclipse Ti-U equipped with a digital camera.
To determine whether the enhancement of AZD2014 therapeutic efficiency by combination with NSC measured in vitro extends to an orthotopic model, GSC JK83 glioma spheres were employed to initiate intracerebral xenografts in mice.

For another data set, the system named is GSC83 and GBM43 cells. As to the kind of experiment: Annexin V/propidium iodide flow cytometry after NSC, IR, TMZ alone or combined. The conditions noted are these: NSC combined with IR or/and TMZ vs single treatments, 48 hours. In kind it is cell-based. (In general: Flow cytometry measures light scatter and fluorescence of single cells or particles in a stream.)

Data set [2] can be described thus: Pharmacokinetic studies in mice: NSC185058 in plasma, brain and liver by LC-MS/MS. Format: in vivo. Conditions: for Cmax / AUC / half-life: plasma; for Cmax: read-out: average maximum plasma concentration (Cmax); for AUC: read-out: Area under the curve (AUC) for the plasma; for half-life: read-out: elimination half-life (converted). How it is done:
(§1) FIG. 1. NSC185058 (NSC) effectively distributes to the plasma, the brain, and the liver with minimal toxicity in mice. (A) to (C) Mice were dosed with peanut oil vehicle or ATG4B antagonists NSC185058 at doses of 10 or 50 mg/kg body weight. Plasma, the brain, and the liver tissues were collected at the indicated time points. (A) Total concentrations of the NSC compound in plasma were measured by LC-MS/MS. The PK parameter of NSC in plasma was determined. (B) NSC levels in plasma were determined form 5 min to 24 hr post dosing. The chemical structure of NSC was shown. (C) NSC levels were determined in the plasma, the brain, and the liver tissues at 0.5 and 8 hr post dosing. (D) Hematoxylin and eosin stained section s of indicated organs that were treated with NSC (150 mg/kg body weight) or vehicle on Monday, Wednesday, and Friday for three weeks. Scale bars, 50 μm. n=3 mice/group/time point.
Athymic (Ncr nu/nu) mice were injected intraperitoneal (i.p.) with peanut oil vehicle or ATG4B antagonists NSC185058 (50 mg/kg body weight for high does group and 10 mg/kg body weight for low does group). Mouse blood was withdrawn by terminal cardiac puncture while the animals were anesthetized with isoflurane. Blood samples were collected in tubes containing K2EDTA as the anticoagulant at 5, 15, and 30 minutes; 1, 2, 4, 8, and 24 hours post-dose for treatment groups. Mouse brain and liver tissue were also collected from the study animals at 1, 2, 4, and 8 hours post-dose. Control group animals were sacrificed at 24 hours after vehicle injection. Blood samples were centrifuged within one hour of collection and plasma was frozen at approximately −80° C. until analyzed at for concentration of the drug. Total concentrations of the NSC185058 compound in the plasma, the liver, and the brain were measured by LC-MS/MS at Illinois Institute of Technology Research Institute.
(§2) The NSC was administered at the dose of 10 or 50 mg/kg body weight in group of three mice. At the indicated time points spanning a 24 hrs period ([…], 0.5, 1, 2, 4, 8, and 24 hour), the plasma, the brain, and the liver tissues were collected. Plasmid and extracts from the brain and the liver were analyzed by LC-MS/MS using method developed at the Illinois Institute of Technology Research Institute (IITRI). […] Plasma exposure appears to increase beyond the hinge in dose for the dosing range tested. The elimination half-life was 2 and 4 for the 10 and 50 mg/kg dose, respectively. […] To examine whether NSC is tolerated in mouse, we investigated the effect induced by NSC in mouse behavior or by pathologic analysis of vital organs including the brain, the heart, the liver, the lung, the kidney, and the spleen. Mice underwent treatments on Monday, Wednesday, and Friday for three week with either peanut oil (vehicle) or NSC (150 mg/kg body weight) in peanut oil. […] Animal tissues were collected one week after the last dosing and subject for hematoxylin and eosin staining.

Data set [3] is described as follows: Toxicity evaluation of NSC185058 in mouse organs (behavior, hematoxylin and eosin staining). Conditions: for pathologic analysis of vital organs (hematoxylin and eosin): 150 mg/kg Monday, brain, heart, liver, lung, kidney, spleen, one week after last dosing. In kind it is in vivo, mice. As to the method:
as §1
Mice were randomized into two groups before the start of experiment. Animals received peanut oil vehicle (control) or ATG4B antagonists NSC185058 (150 mg/kg body weight) on Monday, Wednesday, and Friday for tow to three weeks. Then, mouse tissues and organs including the liver, the kidney, the lung, the spleen, the heart, and the brain were collected after one week post last dose. All specimens were immediately formalin-fixed for 24-36 hrs and then embedded in paraffin embedded. Five micrometer-thick serial sections were obtained from each samples for standard hematoxylin and eosin staining.
as §2

Setting [4] is: athymic Ncr nu/nu, mouse, IP 10 mg/kg.
Setting [5] is: athymic Ncr nu/nu, mouse, IP 50 mg/kg.

Like-named read-outs stand apart in the source and are kept apart here.

By AUC is commonly meant concentration integrated over time. As usually defined, the half-life is the time in which the quantity being followed falls by half.

As for `S=C(Nc1ccccn1)c1ccccn1` [NSC185058, N-pyridin-2-yl-pyridine-2-carbothioamide], in data set [1] (NSC (50 mg/kg) alone), the “autophagic flux (LC3B puncta staining) in brain tumor xenografts” value is on record as “slight impact on autophagic flux”. In addition, in data set [1] (NSC (50 mg/kg) in the combination protocol), the “AZD2014-induced autophagy response in the brain” value is “strongly attenuated AZD2014-induced autophagy response”. For the same compound, in data set [1] (NSC (100 mg/kg), AZD2014 (50 mg/kg), alone or combined, vs control), the mouse survival entry was “modest but significant effects on mouse survival”. The “effect of NSC on inhibition efficiency of AZD2014 on xenograft growth” value in data set [1] (combination treatment) is reported as “enhanced the inhibition efficiency of AZD2014”. The “apoptotic cells (Annexin V/PI)” value with GSC83 and GBM43 cells is listed as “more apoptotic cells than single treatments”. For the same compound, the figures for the blood-brain barrier penetration result in data set [2] and in data set [2] (listed as NSC) were “excellent blood/brain barrier (BBB) penetration” and “penetrates the tumor blood-brain barrier at sufficient levels”, respectively. Besides, the Cmax came out at 2.6 µM in data set [2] (athymic Ncr nu/nu, mouse, IP single dose 10 mg/kg) and 33 µM in data set [2] (athymic Ncr nu/nu, mouse, IP single dose 50 mg/kg). Further, in data set [2] (athymic Ncr nu/nu, mouse, IP, brain vs plasma, read-out: average brain tissue concentration relative to that in the plasma at the same time points), the Kp lay within 0.4 to 1. In data set [2] (athymic Ncr nu/nu, mouse, brain, 50 mg/kg, 0.5 hrs post IP dose, read-out: Average brain tissue concentration), the concentration at 0.5 h stood at 12000 ng/g. For the same compound, in data set [2] (athymic Ncr nu/nu, mouse, brain, 50 mg/kg, 8 hrs post IP dose, read-out: Average brain tissue concentration), the concentration at 8 h amounted to 4100 ng/g. Also, the results for the AUC in data set [2] (setting [4]) and in data set [2] (setting [5]) were 2140 ng·h/mL and 57200 ng·h/mL, respectively. Besides, the half-life in data set [2] (setting [4]) was 2 h; in data set [2] (setting [5]), 4 h. In addition, the “pathologic analysis of vital organs (hematoxylin and eosin)” value in data set [3] (Wednesday, Friday for three weeks) is reported as “no relevant tissue toxicity”; in data set [3] (Wednesday, Friday for three weeks, listed as NSC), “no morphological changes or abnormal findings”. Also, in data set [3] (150 mg/kg in peanut oil, Monday, Wednesday, Friday for three weeks), the mouse behavior entry is given as “did not display behavioral changes”. In addition, the “toxic effects on the animals” value in data set [3] (mice) was “did not display any toxic effects”.

The values are drawn from patent US11793816B2, “Methods for enhancing cytotoxic cancer therapy through inhibition of ATG4B” (Northwestern University, priority 2019, dated 2023).
